Source: US9919998B2, “Antibacterial agents: Nα-aroyl-N-aryl-phenylalaninamides” (priority 2014, dated 2018)
Converted amounts (≈) assume the structure as drawn.

How the values were obtained:
Format in all cases: cell-based
[1] = test system: Mycobacterium avium ATCC 25291; assay: Microplate Alamar Blue assay (MABA) MIC, M. avium; conditions: ATCC25291, M. avium ATCC 25291
Text: (§1) Minimal inhibitory concentrations (MICs) in Mycobacterium tuberculosis H37Rv and Mycobacterium avium ATCC 25291 were quantified using microplate Alamar Blue assays as described (MABA; [Collins, L. & Franzblau, S. (1997) Microplate Alamar Blue assay versus BACTEC 460 system for high-throughput screening of compounds against Mycobacterium tuberculosis and Mycobacterium avium. Antimicrob. Agents Chemother. 41, 1004-1009]).

[2] = test system: Vero E6 ATCC CRL1586 cells; assay: Mammalian-cell cytotoxicity, minimal cytotoxic concentration (CellTiter96)
Method: Minimal cytotoxic concentrations (MCCs) against mammalian cells in culture were determined using Vero E6 ATCC CRL1586 cells and the CellTiter96 assay kit (Promega, Inc.). […]

[3] = test system: Mycobacterium tuberculosis H37Rv; assay: Microplate Alamar Blue assay (MABA) MIC, M. tuberculosis; conditions: read-out: MIC Mycobacterium tuberculosis H37Rv
Text: as §1

[4] = test system: Mycobacterium smegmatis ATCC 19420; assay: Broth microdilution MIC, M. smegmatis; conditions: Mycolicibacterium smegmatis, ATCC19420, M. smegmatis ATCC 19420; read-out: MIC Mycobacterium smegmatis ATCC 19420
Text: MICs in Mycobacterium smegmatis ATCC 19420 and Mycobacterium smegmatis ATCC 19420 derivatives were quantified using broth microdilution assays as described [Clinical and Laboratory Standards Institute (CLSI/NCCLS) (2009) Methods for Dilution Antimicrobial Susceptibility Tests for Bacteria That Grow Aerobically; Approved Standard, Eighth Edition. CLIS Document M07-A8 (CLIS, Wayne Pa.)].

| Structure (SMILES) | MIC [1] [µg/mL] | MCC mammalian cells Vero E6 ATCC CRL1586 [2] [µg/mL] | MIC [3] [µg/mL] | MIC [4] [µg/mL] |
| --- | --- | --- | --- | --- |
| O=C(NC(Cc1ccc(O)cc1)C(=O)Nc1cccc2c1OCCO2)c1ccccc1Br (centres unmarked) [IX-176, 2-bromo-N-(1-((2,3-dihydrobenzo[b][1,4]dioxin-5-yl)amino)-3-(4-hydroxyphenyl)-1-oxopropan-2-yl)benzamide] | 6.25 (≈ 12.6 µM) | 100.0 | 6.25 (≈ 12.6 µM) | 3.1 (≈ 6.23 µM) |
| O=C(NC(Cc1ccccc1)C(=O)Nc1ccccc1OC(F)F)c1ccccc1 (centres unmarked) [I-61, N-(1-((2-(difluoromethoxy)phenyl)amino)-1-oxo-3-phenylpropan-2-yl)benzamide] | 6.25 (≈ 15.2 µM) | >100 | 6.25 (≈ 15.2 µM) | 0.39 (≈ 0.95 µM) |
| O=C(NC(Cc1ccccc1)C(=O)Nc1cccc2c1OC(F)(F)O2)c1cccs1 (centres unmarked) [IX-124, N-(1-((2,2-difluorobenzo[d][1,3]dioxol-4-yl)amino)-1-oxo-3-phenyl-propan-2-yl)thiophene-2-carboxamide] | > 50 | 38 | > 50 | 0.78 (≈ 1.81 µM) |
| O=C(NC(Cc1ccccc1)C(=O)Nc1cccc2cnccc12)c1cccc2[nH]ccc12 (centres unmarked) [IX-44, N-(1-(isoquinolin-5-ylamino)-1-oxo-3-phenylpropan-2-yl)-1H-indole-4-carboxamide] | 3.12 (≈ 7.19 µM) | 70 | 1.56 (≈ 3.59 µM) | 0.195 (≈ 0.449 µM) |
| O=C(NC(Cc1ccccc1)C(=O)Nc1cc(F)ccc1N1CCNCC1)c1cccc2[nH]ccc12 (centres unmarked) [IX-243] | 0.78 (≈ 1.61 µM) | 11 | 6.25 (≈ 12.9 µM) | 0.19 (≈ 0.391 µM) |
| O=C(NC(Cc1ccccc1)C(=O)Nc1cccc2c1OCCO2)c1cccc2[nH]ccc12 (centres unmarked) [IX-45, N-(1-((2,3-dihydrobenzo[b][1,4]dioxin-5-yl)amino)-1-oxo-3-phenyl-propan-2-yl)-1H-indole-4-carboxamide] | 6.25 (≈ 14.2 µM) | 71 | 3.12 (≈ 7.08 µM) | 0.39 (≈ 0.883 µM) |
| O=C(NC(Cc1ccc(O)cc1)C(=O)Nc1cccc2c1OCCO2)c1ccccc1 (centres unmarked) [IX-21, N-(1-((2,3-dihydrobenzo[b][1,4]dioxin-5-yl)amino)-3-(4-hydroxyphenyl)-1-oxopropan-2-yl)benzamide] | 6.25 (≈ 14.9 µM) | >100 | 6.25 (≈ 14.9 µM) | 0.78 (≈ 1.86 µM) |
| COc1cccc(NC(=O)C(Cc2ccccc2)NC(=O)c2cccs2)c1C (centres unmarked) [IX-107, N-(1-((3-methoxy-2-methylphenyl)amino)-1-oxo-3-phenylpropan-2-yl)thiophene-2-carboxamide] | 50 (≈ 127 µM) | >100 | > 50 | 0.78 (≈ 1.98 µM) |
| COc1ccc(F)cc1NC(=O)C(Cc1ccc(O)cc1)NC(=O)c1ccccc1C (centres unmarked) [IX-205, N-(1-((5-fluoro-2-methoxyphenyl)amino)-3-(4-hydroxyphenyl)-1-oxopropan-2-yl)-2-methylbenzamide] | 0.78 (≈ 1.85 µM) | 70 | 0.78 (≈ 1.85 µM) | 0.39 (≈ 0.923 µM) |
| COc1ccc(F)cc1NC(=O)C(Cc1ccc(O)cc1)NC(=O)c1ccccc1 (centres unmarked) [IX-203, N-(1-((5-fluoro-2-methoxyphenyl)amino)-3-(4-hydroxyphenyl)-1-oxopropan-2-yl)benzamide] | 0.78 (≈ 1.91 µM) | >100 | 0.78 (≈ 1.91 µM) | 0.195 (≈ 0.477 µM) |
| O=C(NC(Cc1ccc(O)cc1)C(=O)Nc1ccccc1N1CCOCC1)c1ccccc1 (centres unmarked) [IX-154, N-(3-(4-hydroxyphenyl)-1-((2-morpholinophenyl)amino)-1-oxo-propan-2-yl)benzamide] | 1.56 (≈ 3.5 µM) | >100 | 1.56 (≈ 3.5 µM) | 0.095 (≈ 0.213 µM) |
| CC(=O)Oc1ccc(CC(NC(=O)c2ccccc2C)C(=O)Nc2ccccc2N2CCOCC2)cc1 (centres unmarked) [IX-181, 4-(2-(2-methylbenzamido)-3-((2-morpholinophenyl)amino)-3-oxopropyl)phenyl acetate] | 3.12 | 84 | 0.78 | 0.097 |
| COc1ccccc1NC(=O)C(Cc1ccccc1)NC(=O)c1cccs1 (centres unmarked) [IX-29, N-(1-((2-methoxyphenyl)amino)-1-oxo-3-phenylpropan-2-yl)thiophene-2-carboxamide] | 6.25 (≈ 16.4 µM) | >100 | 3.12 (≈ 8.21 µM) | 0.195 (≈ 0.513 µM) |
| Cc1ccccc1C(=O)NC(Cc1ccccc1)C(=O)Nc1cc(F)ccc1N1CCOCC1 (centres unmarked) [IX-159, N-(1-((5-fluoro-2-morpholinophenyl)amino)-1-oxo-3-phenylpropan-2-yl)-2-methylbenzamide] | 0.39 (≈ 0.845 µM) | 10 | 0.39 (≈ 0.845 µM) | 0.047 (≈ 0.102 µM) |
| CC1CN(c2ccccc2NC(=O)C(Cc2ccccc2)NC(=O)c2ccccc2)CC(C)O1 (centres unmarked) [IX-265, N-(1-((2-(2,6-dimethylmorpholino)phenyl)amino)-1-oxo-3-phenyl-propan-2-yl)benzamide] | 6.25 (≈ 13.7 µM) | >100 | 6.25 (≈ 13.7 µM) | 1.56 (≈ 3.41 µM) |
| Cn1ccc2cccc(NC(=O)C(Cc3ccccc3)NC(=O)c3ccccc3)c21 (centres unmarked) [IX-231, N-(1-((1-methyl-1H-indol-7-yl)amino)-1-oxo-3-phenylpropan-2-yl)benzamide] | > 50 | >100 | 25 (≈ 62.9 µM) | 1.56 (≈ 3.92 µM) |
| O=C(NC(Cc1ccccc1)C(=O)Nc1cc(F)ccc1OCF)c1ccccc1F (centres unmarked) [IX-177, 2-fluoro-N-(1-((5-fluoro-2-(fluoromethoxy)phenyl)amino)-1-oxo-3-phenylpropan-2-yl)benzamide] | 0.78 (≈ 1.82 µM) | >100 | 0.39 (≈ 0.91 µM) | 0.39 (≈ 0.91 µM) |
| Cc1ccc(Cl)cc1NC(=O)C(Cc1ccccc1)NC(=O)c1ccccc1C (centres unmarked) [IX-67, N-(1-((5-chloro-2-methylphenyl)amino)-1-oxo-3-phenylpropan-2-yl)-2-methylbenzamide] | 1.56 (≈ 3.83 µM) | 8 | 1.56 (≈ 3.83 µM) | 0.19 (≈ 0.467 µM) |
| COc1ccccc1NC(=O)C(Cc1ccccc1)NC(=O)c1cccc2[nH]ccc12 (centres unmarked) [IX-43, N-(1-((2-methoxyphenyl)amino)-1-oxo-3-phenylpropan-2-yl)-1H-indole-4-carboxamide] | 12.5 (≈ 30.2 µM) | 59 | 6.25 (≈ 15.1 µM) | 0.39 (≈ 0.943 µM) |
| COc1ccc(F)cc1NC(=O)C(Cc1ccccc1)NC(=O)c1cccc2[nH]ccc12 (centres unmarked) [IX-244, N-(1-((5-fluoro-2-methoxyphenyl)amino)-1-oxo-3-phenylpropan-2-yl)-1H-indole-4-carboxamide] | 3.12 (≈ 7.24 µM) | 58 | 6.25 (≈ 14.5 µM) | 0.78 (≈ 1.81 µM) |
| O=C(NC(Cc1ccccc1)C(=O)Nc1ccccc1-n1cncn1)c1ccccc1 (centres unmarked) [I-203] | 50 (≈ 122 µM) | >100 | 12.5 (≈ 30.4 µM) | 0.78 (≈ 1.9 µM) |
| O=C(NC(Cc1ccccc1)C(=O)Nc1cccc2ccncc12)c1ccccc1 (centres unmarked) [IX-15, N-(1-(isoquinolin-8-ylamino)-1-oxo-3-phenylpropan-2-yl)benzamide] | 25 (≈ 63.2 µM) | 85 | 6.25 (≈ 15.8 µM) | 0.78 (≈ 1.97 µM) |
| Cc1c(NC(=O)C(Cc2ccccc2)NC(=O)c2ccccc2)cccc1OC(C)C (centres unmarked) [I-51] | > 50 | >100 | > 50 | 1.56 (≈ 3.75 µM) |
